How the values were obtained:
Conditions in all cases: primary screen
[1] = test system: ENR+CD organoids (ISC to Paneth cell differentiation); assay: Primary screen: basal (non-stimulated) lysozyme secretion LYZ.NS, 2.5-D 384-well ENR+CD organoid differentiation; format: cell-based, mouse
Source text: (§1) High-throughput screening.

[2] = test system: ENR+CD organoids (ISC to Paneth cell differentiation); assay: Primary screen: CCh-stimulated lysozyme secretion LYZ.S, 2.5-D 384-well ENR+CD organoid differentiation; format: cell-based, mouse
Source text: as §1

ENR+CD organoids = assay: Primary screen: ATP (CellTiter-Glo 3D, CTG) cell number/viability, 2.5-D 384-well ENR+CD organoids;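 further: compounds given at plating and again on day 3 over a 6-day differentiation from ENR+CV stem-cell-enriched precursors, ATP measured on day 6, plate median as control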
[3] = 1st dose row of the treatment (0.08 uM by row order; dose not reprinted)
[4] = 2nd dose row of the treatment (0.40 uM by row order; dose not reprinted)
[5] = 3rd dose row of the treatment (2.00 uM by row order; dose not reprinted)
[6] = 4th dose row of the treatment (10.00 uM by row order; dose not reprinted)

Compound	Dose.FC.LYZ.NS ([1]; dose 0.08 uM) [log2 fold change]	Z.LYZ.NS (standard z score) ([1]; dose 0.08 uM)	Dose.FC.LYZ.NS ([1]; dose 0.40 uM) [log2 fold change]	Z.LYZ.NS (standard z score) ([1]; dose 0.40 uM)	Dose.FC.LYZ.NS ([1]; dose 2.00 uM) [log2 fold change]	Z.LYZ.NS (standard z score) ([1]; dose 2.00 uM)	Dose.FC.LYZ.NS ([1]; dose 10.00 uM) [log2 fold change]	Z.LYZ.NS (standard z score) ([1]; dose 10.00 uM)	Dose.FC.LYZ.S ([2]; dose 0.08 uM) [log2 fold change]	Dose.FC.LYZ.S ([2]; dose 0.40 uM) [log2 fold change]	Dose.FC.LYZ.S ([2]; dose 2.00 uM) [log2 fold change]	Dose.FC.LYZ.S ([2]; dose 10.00 uM) [log2 fold change]	Dose.FC.CTG (ENR+CD organoids; dose 0.08 uM) [log2 fold change]	Z.CTG (standard z score) (ENR+CD organoids; dose 0.08 uM)	Dose.FC.CTG (ENR+CD organoids; dose 0.40 uM) [log2 fold change]	Z.CTG (standard z score) (ENR+CD organoids; dose 0.40 uM)	Dose.FC.CTG (ENR+CD organoids; dose 2.00 uM) [log2 fold change]	Z.CTG (standard z score) (ENR+CD organoids; dose 2.00 uM)	Dose.FC.CTG (ENR+CD organoids; dose 10.00 uM) [log2 fold change]	Z.CTG (standard z score) (ENR+CD organoids; dose 10.00 uM)	other results
O=C(O)C(Cc1ccccc1[N+](=O)[O-])=NNc1nc(-c2ccc(Cl)c(Cl)c2)cs1 (mixture of isomers) [4EGI-1]	0.110	0.956	0.036	0.315	0.069	0.597	−0.034	−0.300	−0.037	0.054	−0.059	0.057	−0.160	−0.383	−0.131	−0.314	0.127	0.304	−0.109	−0.261	SSMD.LYZ.NS_Rep (strictly standardized mean difference) [1, 3]: 0.378; SSMD.LYZ.NS_Rep (strictly standardized mean difference) [1, 4]: 0.264; SSMD.LYZ.NS_Rep (strictly standardized mean difference) [1, 5]: 0.252; SSMD.LYZ.NS_Rep (strictly standardized mean difference) [1, 6]: −0.257; SSMD.LYZ.S_Rep (strictly standardized mean difference) [2, 3]: −0.264; Z.LYZ.S (standard z score) [2, 3]: −0.236; SSMD.LYZ.S_Rep (strictly standardized mean difference) [2, 4]: 0.326; Z.LYZ.S (standard z score) [2, 4]: 0.352; SSMD.LYZ.S_Rep (strictly standardized mean difference) [2, 5]: −0.328; Z.LYZ.S (standard z score) [2, 5]: −0.380; SSMD.LYZ.S_Rep (strictly standardized mean difference) [2, 6]: 0.189; Z.LYZ.S (standard z score) [2, 6]: 0.366; SSMD.CTG.Rep (strictly standardized mean difference) (ENR+CD organoids; [3]): −0.352; SSMD.CTG.Rep (strictly standardized mean difference) (ENR+CD organoids; [4]): −0.158; SSMD.CTG.Rep (strictly standardized mean difference) (ENR+CD organoids; [5]): 0.407; SSMD.CTG.Rep (strictly standardized mean difference) (ENR+CD organoids; [6]): −0.283
Fc1cc(F)c2c(c1)[C@H]1C=CC[C@H]1C(c1cccnc1)N2 (mixture of isomers) [Golgicide A]		2.325		0.576		1.492		−1.402						0.398		0.541		0.810		−0.526	Dose.FC.LYZ.NS (log2 fold change) ([1]; dose 0.08 uM): 0.267; Dose.FC.LYZ.NS (log2 fold change) ([1]; dose 0.40 uM): 0.066; Dose.FC.LYZ.NS (log2 fold change) ([1]; dose 2.00 uM): 0.171; Dose.FC.LYZ.NS (log2 fold change) ([1]; dose 10.00 uM): −0.161; Dose.FC.LYZ.S (log2 fold change) ([2]; dose 0.08 uM): 0.146; Dose.FC.LYZ.S (log2 fold change) ([2]; dose 0.40 uM): 0.202; Dose.FC.LYZ.S (log2 fold change) ([2]; dose 2.00 uM): 0.076; Dose.FC.LYZ.S (log2 fold change) ([2]; dose 10.00 uM): −0.256; Dose.FC.CTG (log2 fold change) (ENR+CD organoids; dose 0.08 uM): 0.167; Dose.FC.CTG (log2 fold change) (ENR+CD organoids; dose 0.40 uM): 0.227; Dose.FC.CTG (log2 fold change) (ENR+CD organoids; dose 2.00 uM): 0.339; Dose.FC.CTG (log2 fold change) (ENR+CD organoids; dose 10.00 uM): −0.220
C[C@H]1COC2(CCN(c3nc(=O)c4cc(C(F)(F)F)cc([N+](=O)[O-])c4s3)CC2)O1 (racemic) [BTZ043 Racemate]	0.131	1.138	0.186	1.619	0.089	0.776	0.100	0.870	0.199	0.252	0.038	0.070	0.497	1.187	0.545	1.303	0.063	0.150	0.327	0.782	
Cl.N[C@@H]1C[C@H]1c1ccccc1 (racemic) [Tranylcypromine (2-PCPA) HCl]	0.033	0.285	−0.049	−0.426	0.049	0.423	−0.045	−0.389	0.050	−0.037	0.036	−0.096	−0.064	−0.153	0.062	0.148	0.053	0.128	−0.533	−1.274	
COc1cc2c(cc1O)CC[C@@H]1[C@@H]2CC[C@]2(C)[C@@H](O)CC[C@@H]12 [2-Methoxyestradiol (2-MeOE2)]	0.021	0.186	0.065	0.566	0.005	0.041	−0.139	−1.209	0.189	0.270	0.029	−0.278	0.299	0.714	0.401	0.957	0.227	0.543	−0.672	−1.606	SSMD.LYZ.NS_Rep (strictly standardized mean difference) [1, 3]: 0.077; SSMD.LYZ.NS_Rep (strictly standardized mean difference) [1, 4]: 0.227; SSMD.LYZ.NS_Rep (strictly standardized mean difference) [1, 5]: 0.049; SSMD.LYZ.NS_Rep (strictly standardized mean difference) [1, 6]: −0.826; SSMD.LYZ.S_Rep (strictly standardized mean difference) [2, 3]: 1.015; Z.LYZ.S (standard z score) [2, 3]: 1.224; SSMD.LYZ.S_Rep (strictly standardized mean difference) [2, 4]: 0.831; Z.LYZ.S (standard z score) [2, 4]: 1.747; SSMD.LYZ.S_Rep (strictly standardized mean difference) [2, 5]: 0.144; Z.LYZ.S (standard z score) [2, 5]: 0.190; SSMD.LYZ.S_Rep (strictly standardized mean difference) [2, 6]: −1.135; Z.LYZ.S (standard z score) [2, 6]: −1.795; SSMD.CTG.Rep (strictly standardized mean difference) (ENR+CD organoids; [3]): 0.407; SSMD.CTG.Rep (strictly standardized mean difference) (ENR+CD organoids; [4]): 0.930; SSMD.CTG.Rep (strictly standardized mean difference) (ENR+CD organoids; [5]): 0.461; SSMD.CTG.Rep (strictly standardized mean difference) (ENR+CD organoids; [6]): −0.878

— patent US20220323406A1, “METHODS AND COMPOSITIONS FOR DIFFERENTIATING STEM CELLS” (Massachusetts Institute of Technology, priority 2019, published 2022)
